Measured values as given in ChEMBL document CHEMBL4699665, “Discovery of ANT3310, a Novel Broad-Spectrum Serine β-Lactamase Inhibitor of the Diazabicyclooctane Class, Which Strongly Potentiates Meropenem Activity against Carbapenem-Resistant Enterobacterales and Acinetobacter baumannii” (J Med Chem, 2020).
Values after ≈ are worked out from the molar mass of the structure shown.

Tested on: Enterobacter cloacae
Experiment: Potentiation of meropenem-induced antibacterial activity against Enterobacter cloacae expressing TEM-1/KPC-2 assessed as meropenem MIC at 4 ug/ml by broth microdilution method (reference value: 8 ug/ml)
Assay type: functional
Details: dose 4 µg/ml
For `O=C1N2C[C@@H](CC[C@H]2S(=O)(=O)C(F)(F)F)N1OS(=O)(=O)[O-].[Na+]`, the MIC was 0.06 µg/mL. With `O=C1N2C[C@@H](CC[C@H]2CCl)N1OS(=O)(=O)[O-].[Na+]` the MIC was 0.06 µg/mL. With `O=C1N2C[C@@H](CC[C@H]2C(F)(F)c2nccs2)N1OS(=O)(=O)[O-].[Na+]` the MIC was 0.125 µg/mL.

Tested on: Enterobacter cloacae
Experiment: Antibacterial activity against Enterobacter cloacae expressing TEM-1/KPC-2 by broth microdilution method
Assay type: functional
Details: not given
`O=C(NNC(=O)[C@@H]1CC[C@@H]2CN1C(=O)N2OS(=O)(=O)O)[C@@H]1CCCNC1` [ZIDEBACTAM] gave an MIC of 0.5 µg/mL (≈ 1.28 µM).

Biological target: not listed separately
Experiment: Inhibition of beta lactamase CTXM-15 in Enterobacter cloacae assessed as decrease in enzyme activity using nitrocefin as substrate preincubated for 10 mins followed by substrate addition measured for 10 mins by fluorescence plate reader analysis
Details: not given
`O=C1N2C[C@@H](CC[C@H]2S(=O)(=O)C(F)(F)F)N1OS(=O)(=O)[O-].[Na+]` gave an IC50 of 2 nM. `O=C1N2C[C@@H](CC[C@H]2CCl)N1OS(=O)(=O)[O-].[Na+]` showed an IC50 of 84 nM. `O=C1N2C[C@@H](CC[C@H]2C(F)(F)c2nccs2)N1OS(=O)(=O)[O-].[Na+]` showed an IC50 of 19 nM.

Tested on: Acinetobacter baumannii
Experiment: Antibacterial activity against Acinetobacter baumannii expressing OXA-23 by broth microdilution method
Assay type: functional
Details: not given
Work on `O=C(NNC(=O)[C@@H]1CC[C@@H]2CN1C(=O)N2OS(=O)(=O)O)[C@@H]1CCCNC1` [ZIDEBACTAM] yielded an MIC greater than 128 µg/mL.

Tested on: Klebsiella pneumoniae
Experiment: Antibacterial activity against Klebsiella pneumoniae expressing SHV-11/OXA-181 by broth microdilution method
Assay type: functional
Details: not given
Work on `O=C(NNC(=O)[C@@H]1CC[C@@H]2CN1C(=O)N2OS(=O)(=O)O)[C@@H]1CCCNC1` [ZIDEBACTAM] yielded an MIC of 2 µg/mL (≈ 5.11 µM).

Tested on: Klebsiella pneumoniae
Experiment: Antibacterial activity against Klebsiella pneumoniae expressing TEM-OSBL/CTX-M-14/OXA-48 by broth microdilution method
Assay type: functional
Details: not given
With `O=C(NNC(=O)[C@@H]1CC[C@@H]2CN1C(=O)N2OS(=O)(=O)O)[C@@H]1CCCNC1` [ZIDEBACTAM] the MIC was 0.25 µg/mL (≈ 0.639 µM).

Tested on: Acinetobacter baumannii
Experiment: Potentiation of meropenem-induced antibacterial activity against Acinetobacter baumannii expressing OXA-23 assessed as meropenem MIC at 4 ug/ml by broth microdilution method (reference value: 32 ug/ml)
Assay type: functional
Details: dose 4 µg/ml
With `O=C1N2C[C@@H](CC[C@H]2S(=O)(=O)C(F)(F)F)N1OS(=O)(=O)[O-].[Na+]` the MIC was 32 µg/mL. In the case of `O=C1N2C[C@@H](CC[C@H]2CCl)N1OS(=O)(=O)[O-].[Na+]`, the MIC is reported as 32 µg/mL. Compound `O=C1N2C[C@@H](CC[C@H]2C(F)(F)c2nccs2)N1OS(=O)(=O)[O-].[Na+]` has an MIC of 32 µg/mL.

Biological target: not listed separately
Experiment: Inhibition of beta lactamase TEM-1 in Enterobacter cloacae assessed as decrease in enzyme activity using nitrocefin as substrate preincubated for 10 mins followed by substrate addition measured for 10 mins by fluorescence plate reader analysis
Details: not given
In the case of `O=C1N2C[C@@H](CC[C@H]2S(=O)(=O)C(F)(F)F)N1OS(=O)(=O)[O-].[Na+]`, the IC50 is reported as 1 nM. Compound `O=C1N2C[C@@H](CC[C@H]2CCl)N1OS(=O)(=O)[O-].[Na+]` has an IC50 of 135 nM. With `O=C1N2C[C@@H](CC[C@H]2C(F)(F)c2nccs2)N1OS(=O)(=O)[O-].[Na+]` the IC50 was 216 nM.

Biological target: not listed separately
Experiment: Inhibition of beta lactamase OXA-48 in Enterobacter cloacae assessed as decrease in enzyme activity using nitrocefin as substrate preincubated for 10 mins followed by substrate addition measured for 10 mins by fluorescence plate reader analysis
Details: not given
Work on `O=C1N2C[C@@H](CC[C@H]2S(=O)(=O)C(F)(F)F)N1OS(=O)(=O)[O-].[Na+]` yielded an IC50 of 15 nM. For `O=C1N2C[C@@H](CC[C@H]2CCl)N1OS(=O)(=O)[O-].[Na+]`, the IC50 was 443 nM. Work on `O=C1N2C[C@@H](CC[C@H]2C(F)(F)c2nccs2)N1OS(=O)(=O)[O-].[Na+]` yielded an IC50 of 1110 nM.

Tested on: Klebsiella pneumoniae
Experiment: Potentiation of meropenem-induced antibacterial activity against Klebsiella pneumoniae expressing SHV-11/OXA-121 assessed as meropenem MIC at 4 ug/ml by broth microdilution method (reference value: 16 ug/ml)
Assay type: functional
Details: dose 4 µg/ml
Work on `O=C1N2C[C@@H](CC[C@H]2S(=O)(=O)C(F)(F)F)N1OS(=O)(=O)[O-].[Na+]` yielded an MIC of 16 µg/mL. With `O=C1N2C[C@@H](CC[C@H]2CCl)N1OS(=O)(=O)[O-].[Na+]` the MIC was 16 µg/mL. Compound `O=C1N2C[C@@H](CC[C@H]2C(F)(F)c2nccs2)N1OS(=O)(=O)[O-].[Na+]` has an MIC of 16 µg/mL.

Biological target: not listed separately
Experiment: Inhibition of beta lactamase KPC-2 in Enterobacter cloacae assessed as decrease in enzyme activity using nitrocefin as substrate preincubated for 10 mins followed by substrate addition measured for 10 mins by fluorescence plate reader analysis
Details: not given
For `O=C1N2C[C@@H](CC[C@H]2S(=O)(=O)C(F)(F)F)N1OS(=O)(=O)[O-].[Na+]`, the IC50 was 15 nM. In the case of `O=C1N2C[C@@H](CC[C@H]2CCl)N1OS(=O)(=O)[O-].[Na+]`, the IC50 is reported as 28 nM. Work on `O=C1N2C[C@@H](CC[C@H]2C(F)(F)c2nccs2)N1OS(=O)(=O)[O-].[Na+]` yielded an IC50 of 3 nM.

Tested on: Klebsiella pneumoniae
Experiment: Antibacterial activity against Klebsiella pneumoniae expressing TEM-1/SHV-11/KPC-3 by broth microdilution method
Assay type: functional
Details: not given
Work on `O=C(NNC(=O)[C@@H]1CC[C@@H]2CN1C(=O)N2OS(=O)(=O)O)[C@@H]1CCCNC1` [ZIDEBACTAM] yielded an MIC of 2 µg/mL (≈ 5.11 µM).

Tested on: Klebsiella pneumoniae
Experiment: Potentiation of meropenem-induced antibacterial activity against Klebsiella pneumoniae expressing TEM-OSBL/CTX-M-14/OXA-48 assessed as meropenem MIC at 4 ug/ml by broth microdilution method (reference value: 16 ug/ml)
Assay type: functional
Details: dose 4 µg/ml
For `O=C1N2C[C@@H](CC[C@H]2S(=O)(=O)C(F)(F)F)N1OS(=O)(=O)[O-].[Na+]`, the MIC was 8 µg/mL. For `O=C1N2C[C@@H](CC[C@H]2CCl)N1OS(=O)(=O)[O-].[Na+]`, the MIC was 8 µg/mL. Compound `O=C1N2C[C@@H](CC[C@H]2C(F)(F)c2nccs2)N1OS(=O)(=O)[O-].[Na+]` has an MIC of 16 µg/mL.

Biological target: not listed separately
Experiment: Inhibition of bacteria beta lactamase OXA-23 assessed as decrease in enzyme activity using nitrocefin as substrate preincubated for 10 mins followed by substrate addition measured for 10 mins by fluorescence plate reader analysis
Details: not given
In the case of `O=C1N2C[C@@H](CC[C@H]2CCl)N1OS(=O)(=O)[O-].[Na+]`, the IC50 is reported as greater than 3000 nM. Work on `O=C1N2C[C@@H](CC[C@H]2C(F)(F)c2nccs2)N1OS(=O)(=O)[O-].[Na+]` yielded an IC50 greater than 3000 nM.

Biological target: not listed separately
Experiment: Inhibition of beta lactamase AmpC in Enterobacter cloacae assessed as decrease in enzyme activity using nitrocefin as substrate preincubated for 10 mins followed by substrate addition measured for 10 mins by fluorescence plate reader analysis
Details: not given
In the case of `O=C1N2C[C@@H](CC[C@H]2S(=O)(=O)C(F)(F)F)N1OS(=O)(=O)[O-].[Na+]`, the IC50 is reported as less than 1 nM. `O=C1N2C[C@@H](CC[C@H]2CCl)N1OS(=O)(=O)[O-].[Na+]` gave an IC50 of 26 nM. Compound `O=C1N2C[C@@H](CC[C@H]2C(F)(F)c2nccs2)N1OS(=O)(=O)[O-].[Na+]` has an IC50 of 1 nM.

Tested on: Klebsiella pneumoniae
Experiment: Potentiation of meropenem-induced antibacterial activity against Klebsiella pneumoniae expressing TEM-1/SHV-11/KPC-3 assessed as meropenem MIC at 4 ug/ml by broth microdilution method (reference value: 128 ug/ml)
Assay type: functional
Details: dose 4 µg/ml
`O=C1N2C[C@@H](CC[C@H]2S(=O)(=O)C(F)(F)F)N1OS(=O)(=O)[O-].[Na+]` showed an MIC of 8 µg/mL. With `O=C1N2C[C@@H](CC[C@H]2CCl)N1OS(=O)(=O)[O-].[Na+]` the MIC was 2 µg/mL. In the case of `O=C1N2C[C@@H](CC[C@H]2C(F)(F)c2nccs2)N1OS(=O)(=O)[O-].[Na+]`, the MIC is reported as 8 µg/mL.
